Measurements as given in ChEMBL document CHEMBL1142028, “(E)-Phenyl- and -heteroaryl-substituted O-benzoyl-(or acyl)oximes as lipoprotein-associated phospholipase A2 inhibitors” (Bioorg Med Chem Lett, 2005).

Biological target: T1, Platelet-activating factor acetylhydrolase (Homo sapiens, UniProt Q13093)
T1 sequence (Q13093 whole entry): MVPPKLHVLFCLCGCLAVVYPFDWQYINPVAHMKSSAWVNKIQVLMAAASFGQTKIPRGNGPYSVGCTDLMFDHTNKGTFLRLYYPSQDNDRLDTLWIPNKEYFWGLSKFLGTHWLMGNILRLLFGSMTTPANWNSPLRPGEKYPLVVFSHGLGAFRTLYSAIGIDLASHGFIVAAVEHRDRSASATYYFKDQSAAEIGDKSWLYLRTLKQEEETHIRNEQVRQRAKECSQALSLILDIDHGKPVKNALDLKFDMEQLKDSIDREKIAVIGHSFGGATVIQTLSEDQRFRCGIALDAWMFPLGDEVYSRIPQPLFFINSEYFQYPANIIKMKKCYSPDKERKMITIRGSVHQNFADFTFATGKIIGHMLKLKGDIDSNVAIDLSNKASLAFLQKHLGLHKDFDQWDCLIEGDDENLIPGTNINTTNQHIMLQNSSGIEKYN
Assay: In vitro inhibitory activity against human lipoprotein-associated phospholipase A2; NA - not active; call rule not given here

For `O=C(ON=C(c1ccccc1)c1ccccc1)c1ccccc1` [(DIPHENYLMETHYLIDENE)AMINO BENZOATE], the IC50 was “Not Active”.
